Reference: BindingDB's records for doi:10.1021/acs.jmedchem.6b01595 (Dipartimento Di Chimica E Tecnologie Del Farmaco "Sapienza" …, 2017)

Target: T1, Histone deacetylase (Plasmodium falciparum (isolate 3D7), UniProt Q7K6A1)
T1 sequence (Q7K6A1 whole entry): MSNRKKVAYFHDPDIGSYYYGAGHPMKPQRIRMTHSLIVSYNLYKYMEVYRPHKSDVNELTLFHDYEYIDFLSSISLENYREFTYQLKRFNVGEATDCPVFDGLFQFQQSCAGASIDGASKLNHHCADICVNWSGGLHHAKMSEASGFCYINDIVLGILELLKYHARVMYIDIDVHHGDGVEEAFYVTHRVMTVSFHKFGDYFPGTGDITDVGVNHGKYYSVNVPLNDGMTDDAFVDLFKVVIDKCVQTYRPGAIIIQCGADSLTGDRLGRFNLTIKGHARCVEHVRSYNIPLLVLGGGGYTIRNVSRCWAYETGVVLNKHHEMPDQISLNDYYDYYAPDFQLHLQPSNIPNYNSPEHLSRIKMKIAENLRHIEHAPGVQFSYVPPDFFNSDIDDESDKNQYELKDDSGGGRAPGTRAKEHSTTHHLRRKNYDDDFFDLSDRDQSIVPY
Assay: Inhibition of HDAC1 in Plasmodium falciparum 3D7 nuclear extract using Ac-RGK(Ac)-AMC fluorogenic peptide as substrate preincubated for 1 hr followed by substrate addition measured after 10 min by fluorescence assay

C/C=C1\NC(=O)[C@H]2CSSCC/C=C/[C@@H](CC(=O)N[C@H](C(C)C)C(=O)N2)OC(=O)[C@H](C(C)C)NC1=O
IC50: 0.9 nM
